Test results: patent EP0769958B1, “INHIBITORS OF LEUKOCYTE ADHESION” (ATHENA NEUROSCIENCES, INC., priority 1994, dated 1996)
pIC50: −log10 of the molar value. Entries after “also recorded” stand apart in the source; their conditions may differ. Bridge positions count the residues as written; N and C are the ends. Ends that are not written are not given here. Peptide text beside a SMILES is read from it.

What was measured:
[1] = molecular target: T1, VLA-4 (Homo sapiens, UniProt P05556+P13612); experiment: Jurkat interaction with soluble VCAM-1 (sVCAM-1-IgG), FACS assay of Example 6; assay type: cell-based; details: for inhibition of interaction of sVCAM-1-IgG with Jurkat cells: Mn+2 and 15/7 present
T1 construct: endogenous in cells; host or cells: Jurkat cells
Source text: VCAM-1 was expressed as a soluble fusion protein. The construct expressed the seven extracellular domains of VCAM-1 on the N-terminus, and the human IgG1 heavy chain constant region on the C-terminus. Interaction of the soluble construct with Jurkat cells was monitored by standard FACS analysis, using a fluorescently labeled antibody directed against the construct's human IgG tail as a marker.
The activity of VLA-4 can be regulated. 15/7 is a monoclonal antibody that recognizes an activated conformation of VLA-4 and locks the molecule in the active state, thereby enhancing VLA-4-mediated cell adhesion.
Peptides of different length, and with various amino acid substitutions were synthesized based on the sequence of the CDR3 region of the antibody 21/6 (EGYYGNYGVYA) (SEQ ID No. 4). The peptides were then tested for their ability to inhibit Jurkat interaction with sVCAM-1-IgG in the FACS assay described in Example 6. IC50 values were determined for each peptide using this assay.

[2] = molecular target: T2, VLA-4 integrin (Homo sapiens, UniProt P05556+P13612); experiment: Adhesion of Jurkat cells to peptide-BSA conjugates coated onto plastic; assay type: cell-based; details: peptide conjugated to carrier protein, exposed to the plastic at 3 µg/mL; Figure 1
T2 construct: endogenous in cells; host or cells: Jurkat cells
Method: The peptide used in this example was synthesized based on the sequence of the anti-α4 integrin antibody 21/6 (CGGEGYYGNYGVYA, SEQ ID No. 1). In this example the peptide was conjugated to a large carrier protein via the linker region that was synthesized as part of the peptide itself (in italics). The conjugated peptide was then coated onto plastic, and the ability of the conjugate to support cell adhesion was tested. This method is based on a report by Wayner and Kovach^40.
As a positive control, the fibronectin peptide described by Wayner was synthesized, conjugated to carrier protein, and tested for cell adhesion in parallel with SEQ ID NO. 1 (CGGEILDVPST, SEQ ID No. 2). Both peptide conjugates were exposed to the plastic at a concentration of 3 µg/mL. […] Adhesion was not affected by an antibody against β2 integrin (IOT18), a distinct cell adhesion molecule that is also expressed on the surface of Jurkat cells. Thus, like peptide SEQ ID NO. 2, peptide SEQ ID NO. 1 interacts with Jurkat in an α4 integrin-specific fashion.

T1 sequence (P13612 34-1032): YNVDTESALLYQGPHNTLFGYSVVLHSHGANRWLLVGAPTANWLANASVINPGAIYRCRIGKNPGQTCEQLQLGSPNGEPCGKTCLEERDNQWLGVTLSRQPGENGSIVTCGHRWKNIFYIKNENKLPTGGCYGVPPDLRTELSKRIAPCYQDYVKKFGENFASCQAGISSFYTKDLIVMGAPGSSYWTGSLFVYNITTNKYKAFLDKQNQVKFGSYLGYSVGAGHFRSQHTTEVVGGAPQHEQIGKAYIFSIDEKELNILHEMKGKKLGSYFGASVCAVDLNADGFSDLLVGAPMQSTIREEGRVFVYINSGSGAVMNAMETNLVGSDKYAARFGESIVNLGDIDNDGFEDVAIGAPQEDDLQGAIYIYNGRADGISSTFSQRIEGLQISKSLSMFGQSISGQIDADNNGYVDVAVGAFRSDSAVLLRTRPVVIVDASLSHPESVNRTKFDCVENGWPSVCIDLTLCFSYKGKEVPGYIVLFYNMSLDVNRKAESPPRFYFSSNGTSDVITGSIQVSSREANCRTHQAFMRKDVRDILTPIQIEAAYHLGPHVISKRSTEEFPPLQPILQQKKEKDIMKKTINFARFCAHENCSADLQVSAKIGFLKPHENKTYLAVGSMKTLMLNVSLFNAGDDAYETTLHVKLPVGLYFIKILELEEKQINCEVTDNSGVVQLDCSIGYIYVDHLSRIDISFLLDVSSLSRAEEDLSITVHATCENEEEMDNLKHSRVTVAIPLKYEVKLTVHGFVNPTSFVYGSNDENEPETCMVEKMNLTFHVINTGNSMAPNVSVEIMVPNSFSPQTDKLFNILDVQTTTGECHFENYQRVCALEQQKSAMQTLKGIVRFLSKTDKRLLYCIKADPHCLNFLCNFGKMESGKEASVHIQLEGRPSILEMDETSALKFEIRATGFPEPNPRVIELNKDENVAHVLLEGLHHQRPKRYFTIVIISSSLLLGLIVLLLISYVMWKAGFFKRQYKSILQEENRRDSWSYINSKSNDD
T1 sequence (P05556 21-798): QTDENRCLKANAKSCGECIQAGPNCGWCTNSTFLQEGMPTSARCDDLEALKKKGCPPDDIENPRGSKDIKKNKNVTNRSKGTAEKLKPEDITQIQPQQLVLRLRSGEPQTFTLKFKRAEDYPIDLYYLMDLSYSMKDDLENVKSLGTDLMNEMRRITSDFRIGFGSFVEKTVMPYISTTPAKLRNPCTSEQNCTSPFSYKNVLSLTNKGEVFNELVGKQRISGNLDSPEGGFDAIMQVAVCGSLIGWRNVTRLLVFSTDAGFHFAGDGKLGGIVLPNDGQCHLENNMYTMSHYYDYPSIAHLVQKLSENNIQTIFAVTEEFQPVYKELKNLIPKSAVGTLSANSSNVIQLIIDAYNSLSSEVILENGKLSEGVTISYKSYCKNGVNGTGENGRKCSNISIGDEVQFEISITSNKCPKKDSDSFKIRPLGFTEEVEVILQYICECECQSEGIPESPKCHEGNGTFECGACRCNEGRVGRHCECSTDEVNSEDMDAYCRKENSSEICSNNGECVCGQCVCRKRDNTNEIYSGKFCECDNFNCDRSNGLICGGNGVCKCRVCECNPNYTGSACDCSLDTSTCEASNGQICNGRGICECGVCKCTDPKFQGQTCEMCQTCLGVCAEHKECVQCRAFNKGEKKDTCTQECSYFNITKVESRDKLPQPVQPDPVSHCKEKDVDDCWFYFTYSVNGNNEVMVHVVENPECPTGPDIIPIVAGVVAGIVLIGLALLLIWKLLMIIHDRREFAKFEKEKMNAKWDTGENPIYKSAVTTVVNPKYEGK
T2 sequence (P13612 34-1032): as the sequence (P13612 34-1032) above
T2 sequence (P05556 21-798): as the sequence (P05556 21-798) above

Row | adhesion of Jurkat cells to immobilized peptide conjugate [2] | Compound | inhibition of interaction of sVCAM-1-IgG with Jurkat cells ([1]; result in words) | also measured
1 | – | NC(=O)C[C@@H]1NC(=O)CNC(=O)[C@H](Cc2ccccc2)NC(=O)CNC(=O)[C@@H](N)CSSC[C@@H](C(=O)O)NC(=O)[C@H](Cc2ccc(O)cc2)NC(=O)[C@H](CO)NC(=O)[C@H](Cc2c[nH]cn2)NC(=O)[C@H](CCC(=O)O)NC1=O [SEQ ID No. 31] (H-CGFGNEHSYC-OH; disulfide 1-10) | particularly good inhibition | –
2 | – | CC[C@H](C)[C@@H]1NC(=O)[C@H](CCC(N)=O)NC(=O)[C@H]([C@@H](C)O)NC(=O)[C@H](CCCNC(=N)N)NC(=O)[C@@H](N)CSSC[C@@H](C(=O)O)NC(=O)[C@H](CO)NC(=O)[C@H](CC(=O)O)NC1=O [SEQ ID No. 35] (H-CRTQIDSC-OH; disulfide 1-8) | – | inhibitory activity compared with parent or linear peptide ([1]; result in words, relative to SEQ ID No. 4 (Nos. 27, 17) or SEQ ID No. 34 (No. 35)): more active than the linear peptide
3 | – | NC(=O)C[C@@H]1NC(=O)CNC(=O)[C@H](Cc2ccccc2)NC(=O)[C@H](Cc2ccc(O)cc2)NC(=O)[C@@H](N)CSSC[C@@H](C(=O)O)NC(=O)[C@H](Cc2ccc(O)cc2)NC(=O)[C@H](CO)NC(=O)[C@H](Cc2c[nH]cn2)NC(=O)[C@H](CCC(=O)O)NC1=O [SEQ ID No. 63] (H-CYFGNEHSYC-OH; disulfide 1-10) | – | pIC50 ([1]; per Example 6: inhibition of Jurkat interaction with sVCAM-1-IgG, FACS, in the presence of Mn+2 and 15/7): ≥ 4.30
4 | bound equally well | CGGEGYYGNYGVYA [SEQ ID No. 1] | – | –
5 | bound equally well | CGGEILDVPST [SEQ ID No. 2, fibronectin peptide described by Wayner, conjugated to carrier protein; positive control, reference compound] | – | –
6 | – | STLTMNPVSF [SEQ ID No. 40] | inhibitory; also recorded: quite active in a linear form | –
